Source: patent publication US20100204460A1, “NATURAL BRASSINOSTEROIDS FOR USE FOR TREATING HYPERPROLIFERATION, TREATING PROLIFERATIVE DISEASES AND REDUCING ADVERSE EFFECTS OF STEROID DYSFUNCTION IN MAMMALS, PHARMACEUTICAL COMPOSITION AND ITS USE” (priority 2007, published 2010)
“Also recorded” adds a separate entry of the source. Like-named read-outs stand apart in the source and are kept apart here.

Assays:
[1] = test system: normal and cancer cell lines of different histopathological origin; assay: Calcein AM cytotoxicity assay, summary statements over the cell line panel; assay type: cell-based; conditions: for cytotoxic / growth inhibitory activity in words: tested in amounts up to 50 μmol/L per assay
Procedure: Stock solutions ([…]) were prepared by dissolving relevant quantity of substance in DMSO cultivation media (DMEM, RPMI 1640, F-12 medium), fetal bovine serum (FBS), L-glutamine, penicillin, and streptomycin were purchased from Sigma (MO, USA). 3-(4,5-Dimethylthiazol-2-yl)-2,5-diphenyltetrazolium bromide (MTT) was from Serva Electrophoresis (Heidelberg, Germany). Monoclonal mouse anti-bromodeoxyuridine (BrdU) intibody was obtained from DakoCytomation (Glostrup, Denmark). Calcein AM was obtained from PAA Laboratories GmbH (Pasching, Austria). The screening cell lines (T-lymphoblastic leukaemia cell line CEM; breast carcinoma cell line MCF-7 (estrogen-sensitive), breast adenocarcinoma cell line MDA-MB 468 (cell lines LNCaP (androgen-sensitive), prostate carcinoma cell line DU-145 ([…]), lung carcinoma cell line A-549, chronic myelogenous leukemia cell line K562, multiple myeloma cell line RPMI 8226, cervical carcinoma cell line HeLa, malignant human melanoma cell line G361, osteosarcoma cell line HOS, and normal human fibroblasts (BJ) were obtained from the American Type Culture Collection (Manassas, Va., USA). MCF-7 cells were cultured in F-12 medium (Sigma, MO, USA). LNCaP cells were cultured in RPMI 1640 medium (GIBCO, USA). All other cells were cultured in DMEM medium (Sigma, MO, USA). All used media were supplemented with 10% heat-inactivated fetal bovine serum, 2 mmol/L L-glutamine, 1% penicillin/streptomycin. The cell lines were maintained under standard cell culture conditions at 37° C. and 5% CO2 in a humid environment. Cells were subcultured twice or three times a week using the standard trypsinization procedure (Sigma, USA).
The cell suspension of approximate density of 1.25×10^5 cells/mL was redistributed into 96-well microtitre plates and after 12 h of stabilization the tested Brassinosteroids (BRs) were added in different concentrations. BRs were dissolved in DMSO. Control cultures were treated with DMSO alone. The final concentration of DMSO in the reaction mixture never exceeded 1%. Tested compounds in given concentrations were added at time zero in 20 μL aliquots to the microtiter plate wells. Usually, each test compound was evaluated at six 4-fold dilutions. In routine testing, the highest well concentration was 50 μmol, but it can be the matter of change dependent on the agent. Cultivation proceeds 96 h at 37° C., the cells were incubated with Calcein AM solution (Molecular Probes) for 1 h. Fluorescence (OD) of viable cells was quantified with Fluoroscan Ascent (Microsystems). The cell survival (IC50) was calculated using the following equation: IC50=(ODdrug exposed well/mean ODcontrol wells)×100%. Each compound was tested in triplicates and the test was repeated at least 3 times. The IC50 value, corresponding to drug concentration lethal to 50% of the tumor cells, was calculated from the obtained dose response curves.
We investigated effects of brassinosteroid on viability of normal and cancer cell lines of different histopathological origin. To evaluate the cytotoxic properties of several BRs and some related steroids, we used T-lymphoblastic leukaemia cell line CEM, breast carcinoma cell line MCF-7, lung carcinoma cell line A-549, chronic myeloid leukaemia cell line K562, multiple myeloma cell line RPMI 8226, cervical carcinoma cell line HeLa, malignant melanoma cell line G361, osteosarcoma cell line HOS, and normal human fibroblasts BJ. The cells were exposed to six 4-fold dilutions of each drug for 72 h to determinate number of surviving cells.

[2] = test system: T-lymphoblastic leukaemia cell line CEM; assay: Calcein AM cytotoxicity assay, CEM; assay type: cell-based; conditions: read-out: IC50 assessed by Calcein AM assay of surviving cells
[3] = test system: normal human fibroblasts (BJ); assay: Calcein AM cytotoxicity assay, BJ; assay type: cell-based; conditions: read-out: IC50 assessed by Calcein AM assay of surviving cells
[4] = test system: malignant human melanoma cell line G361; assay: Calcein AM cytotoxicity assay, G 361; assay type: cell-based
[5] = test system: multiple myeloma cell line RPMI 8226; assay: Calcein AM cytotoxicity assay, RPMI 8226; assay type: cell-based; conditions: exposure 72 h (b71 says 96 h), mean ± SD
measles virus (MV) = conditions: cited from earlier work
[6] = test system: herpes simplex virus type 1 (HSV-1); conditions: cited from earlier work
arena viruses = conditions: cited from earlier work
[7] = CEM, six 4-fold dilutions, exposure 72 h (b71 says 96 h), mean ± SD
[8] = Homo sapiens, Fibroblast, BJ normal fibroblasts, exposure 72 h (b71 says 96 h), mean ± SD
[9] = Homo sapiens, G 361, exposure 72 h (b71 says 96 h), mean ± SD, read-out: IC50 assessed by Calcein AM assay of surviving cells
[10] = Homo sapiens, RPMI-8226, RPMI 8226, read-out: IC50 assessed by Calcein AM assay of surviving cells
[11] = BJ normal fibroblasts, exposure 72 h (b71 says 96 h), mean ± SD
[12] = G 361, exposure 72 h (b71 says 96 h), mean ± SD, read-out: IC50 assessed by Calcein AM assay of surviving cells
[13] = RPMI 8226, read-out: IC50 assessed by Calcein AM assay of surviving cells
[14] = Homo sapiens, G-361, read-out: IC50 assessed by Calcein AM assay of surviving cells
[15] = Homo sapiens, RPMI-8226, read-out: IC50 assessed by Calcein AM assay of surviving cells, RPMI 8226

Structure (SMILES) | cytotoxic / growth inhibitory activity in words [1] | IC50 [2, 7] | IC50 [3, 11] | IC50 [4, 12] | IC50 [5, 13] | other results
CC(C)CCC[C@@H](C)[C@H]1CC[C@H]2[C@@H]3CC[C@H]4CCCC[C@]4(C)[C@H]3CC[C@]12C [5α-cholestane] | Almost zero activity | > 50 µM |  |  |  | IC50 [3, 8]: > 50 µM; IC50 [4, 9]: > 50 µM; IC50 [5, 10]: > 50 µM
CC(C)[C@@H](C)[C@H](O)[C@@H](O)[C@@H](C)[C@H]1CC[C@H]2[C@@H]3COC(=O)[C@H]4C[C@H](O)[C@H](O)C[C@]4(C)[C@H]3CC[C@]12C [22S,23S-24-Epibrassinolide] |  | > 50 µM | > 50 µM | > 50 µM | > 50 µM | 
CC(C)[C@@H](C)[C@H](O)[C@@H](O)[C@@H](C)[C@H]1CC[C@H]2[C@@H]3CC(=O)[C@H]4C[C@H](O)[C@H](O)C[C@]4(C)[C@H]3CC[C@]12C [22S,23S-24-Epicastasterone] |  | 49 ± 1.8 µM | > 50 µM | > 50 µM | > 50 µM | 
CC[C@@H](C(C)C)[C@H](O)[C@@H](O)[C@@H](C)[C@H]1CC[C@H]2[C@@H]3COC(=O)[C@H]4C[C@H](O)[C@H](O)C[C@]4(C)[C@H]3CC[C@]12C [22S,23S-28-Homobrassinolide] |  | 35 ± 2.2 µM | > 50 µM | > 50 µM | 31 ± 7.3 µM | IC50 ([1]; range over RPMI 8226 and CEM values of Table 1): 31 to 35 µM
CC[C@@H](C(C)C)[C@H](O)[C@@H](O)[C@@H](C)[C@H]1CC[C@H]2[C@@H]3CC(=O)[C@H]4C[C@H](O)[C@H](O)C[C@]4(C)[C@H]3CC[C@]12C [22S,23S-28-Homocastasterone] |  | 24 ± 1.5 µM | > 50 µM | 45 ± 2.2 µM | 25 µM | 
CC(C)[C@@H](C)/C=C/[C@@H](C)[C@H]1CC[C@H]2[C@@H]3CC=C4C[C@@H](O)CC[C@]4(C)[C@H]3CC[C@]12C [Brassicasterol] | Almost zero activity | > 50 µM | > 50 µM | > 50 µM | > 50 µM | 
CC(C)[C@H](C)[C@@H](O)[C@H](O)[C@@H](C)[C@H]1CCC2C3COC(=O)C4C[C@H](O)[C@H](O)C[C@]4(C)C3CC[C@@]21C (some centres unmarked) [Brassinosteroid 1] |  |  |  |  |  | IC50 [2]: > 50 µM; IC50 ([3]; Homo sapiens, Fibroblast): > 50 µM; IC50 [4, 14]: > 50 µM; IC50 [5, 15]: > 50 µM
CC[C@@H](C(C)C)[C@@H](O)[C@H](O)[C@@H](C)[C@H]1CC[C@H]2[C@@H]3COC(=O)[C@H]4C[C@H](O)[C@H](O)C[C@]4(C)[C@H]3CC[C@]12C [Brassinosteroid 2, 28-Homobrassinolide] |  |  |  |  |  | in vitro antiviral activity (measles virus (MV)): in vitro antiviral activity; in vitro antiviral activity [6]: in vitro antiviral activity; in vitro antiviral activity (arena viruses): in vitro antiviral activity
CC[C@@H](C(C)C)[C@@H](O)[C@H](O)[C@@H](C)[C@H]1CCC2C3COC(=O)C4C[C@H](O)[C@H](O)C[C@]4(C)C3CC[C@@]21C (some centres unmarked) [Brassinosteroid 2] |  | 48 ± 1.3 µM |  |  |  | IC50 [3, 8]: > 50 µM; IC50 [4, 9]: > 50 µM; IC50 [5, 10]: > 50 µM
CC(C)[C@H](C)[C@@H](O)[C@H](O)[C@@H](C)[C@H]1CC[C@H]2[C@@H]3CC(=O)[C@H]4C[C@H](O)[C@H](O)C[C@]4(C)[C@H]3CC[C@]12C [Brassinosteroid 8, Castasterone] | high cytotoxicity |  |  |  |  | 
CC(C)[C@H](C)[C@@H](O)[C@H](O)[C@@H](C)[C@H]1CCC2C3CC(=O)C4C[C@H](O)[C@H](O)C[C@]4(C)C3CC[C@@]21C (some centres unmarked) [Brassinosteroid 8] |  | 16 ± 5.3 µM |  |  |  | IC50 [3, 8]: > 50 µM; IC50 [4, 9]: > 50 µM; IC50 [5, 10]: 33 ± 1.3 µM
CC(C)[C@H](C)[C@@H](O)[C@H](O)[C@@H](C)[C@H]1CCC2C3CC(=O)C4C[C@H](O)[C@@H](O)C[C@]4(C)C3CC[C@@]21C (some centres unmarked) [Brassinosteroid 16] |  | > 50 µM | > 50 µM | > 50 µM | > 50 µM | 
CC(C)CCC[C@@H](C)[C@H]1CC[C@H]2[C@@H]3CC=C4C[C@@H](O)CC[C@]4(C)[C@H]3CC[C@]12C [Cholesterol] |  | > 50 µM |  |  | 38 ± 2.9 µM | IC50 [3, 8]: > 50 µM; IC50 [4, 9]: > 50 µM; IC50 [5, 10]: > 30 µM
CC[C@H](CC[C@@H](C)[C@H]1CC[C@H]2[C@@H]3CC=C4C[C@@H](O)CC[C@]4(C)[C@H]3CC[C@]12C)C(C)C [Sitosterol] | Almost zero activity | > 50 µM | > 50 µM | > 50 µM | 32 ± 1.6 µM | 
CC[C@H](/C=C/[C@@H](C)[C@H]1CC[C@H]2[C@@H]3CC=C4C[C@@H](O)CC[C@]4(C)[C@H]3CC[C@]12C)C(C)C [Stigmasterol] | Almost zero activity |  |  |  |  | IC50 [2]: > 50 µM; IC50 ([3]; Homo sapiens, Fibroblast): > 50 µM; IC50 [4, 14]: > 50 µM; IC50 [5, 15]: > 30 µM; IC50 ([5]; read-out: IC50 assessed by Calcein AM assay of surviving cells, RPMI 8226): 32 ± 0.6 µM
CC(C)(O)CC[C@@H](O)[C@](C)(O)[C@H]1CC[C@@]2(O)C3=CC(=O)[C@@H]4C[C@@H](O)[C@@H](O)C[C@]4(C)[C@H]3CC[C@]12C [β-ecdyson] |  | > 50 µM | > 50 µM | > 50 µM | > 50 µM | cytotoxic / growth inhibitory activity in words ([1]; listed as β-ecdysone): Almost zero activity; also recorded: zero growth inhibitory activity
